Laboratory results published in publication PMC5466683, “Development and Evaluation of ^18F-IRS for Molecular Imaging Mutant EGF Receptors in NSCLC” (Scientific Reports, 2017).

Legend:
H520 cells [1] = assay: MTT cell growth inhibition assay; type: cell-based; settings: Homo sapiens, NCI-H520, H520 cells (negative EGFR), 48 h
Procedure: (§1) NSCLC having EGFR with L858R mutation is also respond to EGFR kinase inhibitors. H3255 cells expressing EGFR L858R mutant is sensitive to EGFR kinase inhibitors. In order to measure the sensitivity of five NSCLC cell lines to F-IRS, […] assay was performed. Tumor cells were plated at a density of 2 × 10^3 cells/well into 96-well plates in RPMI 1640 with 10% FBS. Cells were kept in the log phase of proliferative activity. Various concentrations of F-IRS added to each well, and incubation was continued for an additional 48 h. Then, 50 μL of MTT solution (2 mg/mL; Sigma) were added to all wells, and incubation was continued for another 2 h. The media containing MTT solution was removed, and the precipitated material was dissolved by adding 100 μL of DMSO. The absorbance was measured with a microplate reader at test and reference wavelengths of […], respectively. The percentage of growth is shown relative to untreated controls.

HCC827 cells [2] = assay: MTT cell growth inhibition assay; type: cell-based; settings: Homo sapiens, HCC827 cells (19 exon deleted mutant EGFR), 48 h
Procedure: as §1

H3255 cells = assay: MTT cell growth inhibition assay; type: cell-based; settings: Homo sapiens, NCI-H3255, H3255 cells (EGFR L858R mutant), 48 h
Procedure: as §1

H358 cells [3] = assay: MTT cell growth inhibition assay; type: cell-based; settings: Homo sapiens, NCI-H358, H358 cells (WT EGFR), 48 h
Procedure: as §1

H1975 cells [4] = assay: MTT cell growth inhibition assay; type: cell-based; settings: Homo sapiens, NCI-H1975, H1975 cells (L858R and T790M EGFR mutations), 48 h
Procedure: as §1

H1975 = system: H1975; parameters: method as in PMID 15767641; settings: H1975, L858R and T790M secondary mutation; cited from earlier work
H358 cell line = system: H358 cell line; parameters: method as in PMID 19826406; settings: H358 (EGFR wild type); cited from earlier work
H520 cells [5] = system: H520 cells; parameters: method as in PMID 21152424; settings: H520 (negative EGFR); cited from earlier work
[6] = Biodistribution and clearance in normal organs of tumor-bearing mice; type: in vivo, BALB/c nude mice
Procedure: (§2) PET/CT imaging of tumor-bearing mice was performed on a clinical time-of-flight (TOF) 64-slice PET/Computed tomography (CT) scanner (Discovery 790 Elite, GE healthcare). The mice bearing tumors (for each group n = 4) were injected with 3.7 MBq (100 μCi) of ^18F-IRS into the tail vein. At 30 min, 60 min and 120 min after injection, the mice were anesthetized with 2% isoflurane and placed near the center of the field of view of the PET/CT scanner in prone position. For blocking studies, gefitinib (100 mg/kg) was injected into HCC827 xenografts nude mice (n = 4) via tail vein 60 min before PET/CT imaging. The mice were imaged as described above 120 min after injection.
(§3) Biodistribution studies were performed in BALB/c nude mice bearing HCC827, H1975, H358 and H520 xenografts by injecting 3.7MBq of ^18F-IRS into the tail vein (n = 4 per group) and then sacrificing the animals at 30 min, 60 min and 120 min after injection. Tumor and normal tissues were excised and weighed, and the radioactivity was measured using a gamma-counter (Wizard 2, PerkinElmer). All measurements were background-subtracted and decay-corrected to the time of injection and then averaged together. The radioactivity uptake in tumor and normal tissues was expressed as the percentage of the injected dose per gram of organ (% ID/g).

H358 xenografts [7] = assay: In vivo PET/CT imaging of tumor-bearing mice; parameters: species or system BALB/c nude mice; settings: H358 tumors, all time points
Procedure: (§4) All animal studies were conducted in accordance with the China Guidelines for Animal Care and Ethic for Animal Experiments and the experimental protocols were approved by the Animal Use and Care Committee of Harbin Medical University. Female BALB/c nude mice (from the Shanghai Slack Experimental Animal Center of qualified animals SCXK) approximately 4–6 weeks of age and mean weight 20–22 g were used. Approximately 5 × 10^6 of cultured HCC827, H1975, H358 and H520 cells were suspended in PBS/Matrigel (1:1) (BD Bioscience) and subcutaneously implanted in the right shoulders of Female BALB/c nude mice. PET/CT studies were performed when the tumor volume reached 250 mm^3 (4–6 weeks after inoculation).
as §2
(§5) The images were reconstructed using a two-dimensional ordered-subset expectation maximization (OSEM) algorithm. For each scan, regions of interest (ROIs) were drawn over the tumor and major organs using the AW4.6 software (GE Healthcare) on decay-corrected whole-body coronal images. The radioactivity concentrations (accumulations) within the tumor, muscle were obtained from mean pixel values within the multiple ROI volumes and then converted to megabecquerels per milliliter per minute using the calibration factor determined for the PET system. These values were then divided by the administered activity to obtain (assuming a tissue density of 1 g/ml) an image ROI-derived percent injected dose per gram (% ID/g).

H520 xenografts [8] = assay: In vivo PET/CT imaging of tumor-bearing mice; parameters: species or system BALB/c nude mice; settings: H520 tumors, all time points
Procedure: as §4, §2, §5

H1975 xenografts = assay: In vivo PET/CT imaging of tumor-bearing mice; parameters: species or system BALB/c nude mice; settings: H1975 tumors, all time points
Procedure: as §4, §2, §5

H520 cells [9] = assay: Cellular uptake and efflux assay; type: cell-based, human; settings: 120 min of incubation
Procedure: (§6) Cells were trypsinized and seeded overnight in 12-well culture plates at a density of 1 × 10^5 cells per well (1 × 10^5 cells/1.0 mL/well). ^18F-IRS (37 kBq/1.0 mL/well) in 1 ml of serum free 1640 medium was added to each well and incubated at 37 °C for 15 min, 30 min, 60 min and 120 min. Triplicates were carried out for each time point. One milliliter of ice-cold PBS was used to intercept the uptake of tracer. The supernatants were aspirated and the cells were rinsed twice with 1 mL of ice-cold PBS to remove surface-bound radioactive ligand. After washing twice with PBS, the cells were harvested by the addition of 250 μl of 0.1 N NaOH. Efflux assays were performed after 120 min of incubation with ^18F-IRS and then the media was removed and replaced with serum free 1640 medium without ^18F-IRS. At 15 min, 30 min, 60 min and 120 min, the media was removed and the cells washed twice with ice-cold PBS. 200 μl of 0.1 N NaOH were added to […] the cells and then the wells were washed twice with 1 ml of ice-cold PBS. The cell solution and the PBS from each washed well were recovered and counted with CPM in a gamma counter (Wizard 2, PerkinElmer). The results were calculated using the same cellular uptake formula. For blocking experiments, gefitinib (100 μmol/L) was added to HCC827 cells. After 60 min of incubation, the uptake and efflux assays in HCC827 cells were repeated thrice.

H358 cells [10] = assay: Cellular uptake and efflux assay; type: cell-based, human; settings: 120 min of incubation
Procedure: as §6

H1975 cells [11] = assay: Cellular uptake and efflux assay; type: cell-based, human; settings: 120 min of incubation
Procedure: as §6

HCC827 xenografts [12] = assay: In vivo PET/CT imaging and blocking of tumor-bearing mice; parameters: species or system BALB/c nude mice
Procedure: as §4, §2, §5

H358 xenografts [13] = assay: Ex vivo biodistribution, tumor uptake; type: in vivo, BALB/c nude mice; settings: H358 tumors, 120 min after injection
Procedure: as §4, §3

HCC827 xenografts [14] = assay: Ex vivo biodistribution, tumor uptake; type: in vivo, BALB/c nude mice
Procedure: as §4, §3

H520 xenografts [15] = assay: Ex vivo biodistribution, tumor uptake; type: in vivo, BALB/c nude mice; settings: H520 tumors, 120 min after injection
Procedure: as §4, §3

HCC827 cells [16] = assay: Cellular uptake, efflux and blocking assay; type: cell-based, human; settings: for cellular uptake: HCC827 cells
Procedure: as §6

[17] = system: NSCLC with responsive EGFR exon 19 deleted; assay: PET/CT examination of patients with NSCLC; type: in vivo, human
Source text: This study (ClinicalTrials.gov number, NCT03031522) was approved by the Medical Ethics Review Committee of the Fourth Hospital of Harbin Medical University. Subjects signed written informed consent after receiving an explanation of the study. The images provided in this article have been agreed by the subjects. The diagnosis was confirmed by histopathological examination. Three patients confirmed having NSCLC with responsive EGFR exon 19 deleted by histopathology participated in the study from January 2015 to February 2016 (Table 2). ^18F-IRS scans were performed on PET/CT (Discovery 790 Elite; GE healthcare). Approximately 222MBq (6 mCi) of ^18F-IRS was administered intravenously within 5 minutes. Scanning was in initiated 1 hour after administration of ^18F-IRS. Corresponding whole body CT scans for attenuation correction were acquired using a low-dose protocol. Consecutively, PET emission data were acquired in three-dimensional mode with a 200 × 200 matrix with 3 min emission time per bed position. The maximum standard uptake value (SUVmax) normalized to body weight […] was calculated within the region of interest with the following formula: [measured activity concentration (Bq/mL) · body weight (kg)]/injected activity (Bq). Calculation of the radioactivity concentration included the use of a calibration factor that converted the activity counts into becquerels, and the decay correction of the Advantage Workstation 4.6 workstation (GE Healthcare) was […].

[18] = HCC827 tumors, 120 min after i.v. injection of 3.7 MBq
[19] = Mean ± SD of three patients, 60 min after injection
[20] = patient 1, 60 min after injection
[21] = patient 2, 60 min after injection
[22] = patient 3, 60 min after injection

FCCOCCOCCOCCOc1cc2ncnc(Nc3ccc(F)c(Cl)c3)c2cc1OCCCN1CCOCC1 [F-IRS]
IC50 (H520 cells [1]): 18400 ± 2210 nM
IC50 (HCC827 cells [2]): 5.6 ± 0.2 nM
IC50 (H3255 cells): 13.1 ± 4.4 nM
IC50 (H358 cells [3]): 7050 ± 2300 nM
IC50 (H1975 cells [4]): 2270 ± 1170 nM

COc1cc2ncnc(Nc3ccc(F)c(Cl)c3)c2cc1OCCCN1CCOCC1 [gefitinib]
sensitivity of cell line (H1975): conferring resistance
sensitivity of cell line (H358 cell line): less sensitive
sensitivity of cell line (H520 cells [5]): do not respond

Fc1ccc(Nc2ncnc3cc(OCCOCCOCCOCC[18F])c(OCCCN4CCOCC4)cc23)cc1Cl [^18F-IRS]
route of elimination ([6]; mice, PET/CT imaging and biodistribution): mainly eliminated through renal clearance
uptake in all other organs and blood ([6]; tumor-bearing nude mice, except kidneys, intestine and gallbladder): very low
tumor uptake on PET/CT images (H358 xenografts [7]): unobviously detectable
tumor uptake on PET/CT images (H520 xenografts [8]): unobviously detectable
tumor uptake on PET/CT images (H1975 xenografts): unobviously detectable
cellular uptake (H520 cells [9]): 2.31 ± 0.36%
cellular uptake (H358 cells [10]): 1.82 ± 0.19%
cellular uptake (H1975 cells [11]): 1.49 ± 0.05%
accumulation in tumors on PET/CT images (HCC827 xenografts [12]; [18]): significantly high accumulation
tumor/muscle ratio (PET quantification) (HCC827 xenografts [12]; HCC827 vs H1975, H358 and H520 xenografts, 120 min, P < 0.01): significantly higher
tumor uptake on PET/CT after blocking (HCC827 xenografts [12]; HCC827 xenografts, gefitinib 100 mg/kg before imaging, 120 min): blocked by gefitinib
tumor uptake (ex vivo biodistribution) (H358 xenografts [13]): 1.68 ± 0.29 % ID/g
tumor uptake (ex vivo biodistribution) (HCC827 xenografts [14]; [18]): 4.27 ± 0.15 % ID/g
tumor uptake (ex vivo biodistribution) after blocking (HCC827 xenografts [14]; HCC827 xenografts blocked by gefitinib 100 mg/kg, 120 min): 1.12 ± 0.21 ID/g
tumor uptake (ex vivo biodistribution) (H520 xenografts [15]): 1.62 ± 0.08 % ID/g
cellular uptake after blocking (HCC827 cells [16]; HCC827 cells treated with 100 μmol/L gefitinib, 120 min of incubation): 0.89 ± 0.12%
cellular uptake (HCC827 cells [16]; 15 min of incubation): 7.51 ± 1.05%
cellular uptake (HCC827 cells [16]; 30 min of incubation): 10.03 ± 0.47%
cellular uptake (HCC827 cells [16]; 120 min of incubation): 14.07 ± 0.98%
SUVmax Bladder [17, 19]: 5.11 ± 3.02
SUVmax Brain [17, 19]: 0.43 ± 0.29
SUVmax Kidneys [17, 19]: 13.13 ± 0.31
SUVmax Liver [17, 19]: 10.48 ± 0.44
SUVmax Lungs [17, 19]: 0.82 ± 0.23
SUVmax Muscles [17, 19]: 0.65 ± 0.14
SUVmax Small intestines [17, 19]: 8.05 ± 1.67
SUVmax Tumor [17, 19]: 2.44 ± 0.49
SUVmax Bladder [17, 20]: 8.51
SUVmax Brain [17, 20]: 0.19
SUVmax Kidneys [17, 20]: 12.96
SUVmax Liver [17, 20]: 10.52
SUVmax Lungs [17, 20]: 0.58
SUVmax Muscles [17, 20]: 0.73
SUVmax Small intestines [17, 20]: 7.17
SUVmax Tumor [17, 20]: 2.19
SUVmax Bladder [17, 21]: 4.11
SUVmax Brain [17, 21]: 0.76
SUVmax Kidneys [17, 21]: 13.49
SUVmax Liver [17, 21]: 10.9
SUVmax Lungs [17, 21]: 1.04
SUVmax Muscles [17, 21]: 0.75
SUVmax Small intestines [17, 21]: 9.99
SUVmax Tumor [17, 21]: 2.12
SUVmax Bladder [17, 22]: 2.72
SUVmax Brain [17, 22]: 0.34
SUVmax Kidneys [17, 22]: 12.95
SUVmax Liver [17, 22]: 10.02
SUVmax Lungs [17, 22]: 0.85
SUVmax Muscles [17, 22]: 0.49
SUVmax Small intestines [17, 22]: 7.01
SUVmax Tumor [17, 22]: 3.01
main route of elimination ([17]; patients with NSCLC): urinary tract, followed by the hepatobiliary
changes in heart rates, respiration rates, and blood pressure ([17]; patients with NSCLC, after i.v. injection): no significant changes
